Measurements taken from patent US12492188B2, “1H-benzo[D]imidazole derivatives as TLR9 inhibitors for the treatment of fibrosis” (BRISTOL-MYERS SQUIBB COMPANY, priority 2020, dated 2025).
Like-named read-outs stand apart in the source and are kept apart here.

Columns and labels:
Assay type in all cases: cell-based
human TLR9 = molecular target: T1, human TLR9 (Homo sapiens, UniProt Q9NR96); assay: TLR9 inhibition reporter assay (HEK-Blue cells, secreted embryonic alkaline phosphatase reporter)
T1 construct: host or cells: HEK-Blue cells (HEK293-derived reporter line)
T1 sequence (Q9NR96 26-1032): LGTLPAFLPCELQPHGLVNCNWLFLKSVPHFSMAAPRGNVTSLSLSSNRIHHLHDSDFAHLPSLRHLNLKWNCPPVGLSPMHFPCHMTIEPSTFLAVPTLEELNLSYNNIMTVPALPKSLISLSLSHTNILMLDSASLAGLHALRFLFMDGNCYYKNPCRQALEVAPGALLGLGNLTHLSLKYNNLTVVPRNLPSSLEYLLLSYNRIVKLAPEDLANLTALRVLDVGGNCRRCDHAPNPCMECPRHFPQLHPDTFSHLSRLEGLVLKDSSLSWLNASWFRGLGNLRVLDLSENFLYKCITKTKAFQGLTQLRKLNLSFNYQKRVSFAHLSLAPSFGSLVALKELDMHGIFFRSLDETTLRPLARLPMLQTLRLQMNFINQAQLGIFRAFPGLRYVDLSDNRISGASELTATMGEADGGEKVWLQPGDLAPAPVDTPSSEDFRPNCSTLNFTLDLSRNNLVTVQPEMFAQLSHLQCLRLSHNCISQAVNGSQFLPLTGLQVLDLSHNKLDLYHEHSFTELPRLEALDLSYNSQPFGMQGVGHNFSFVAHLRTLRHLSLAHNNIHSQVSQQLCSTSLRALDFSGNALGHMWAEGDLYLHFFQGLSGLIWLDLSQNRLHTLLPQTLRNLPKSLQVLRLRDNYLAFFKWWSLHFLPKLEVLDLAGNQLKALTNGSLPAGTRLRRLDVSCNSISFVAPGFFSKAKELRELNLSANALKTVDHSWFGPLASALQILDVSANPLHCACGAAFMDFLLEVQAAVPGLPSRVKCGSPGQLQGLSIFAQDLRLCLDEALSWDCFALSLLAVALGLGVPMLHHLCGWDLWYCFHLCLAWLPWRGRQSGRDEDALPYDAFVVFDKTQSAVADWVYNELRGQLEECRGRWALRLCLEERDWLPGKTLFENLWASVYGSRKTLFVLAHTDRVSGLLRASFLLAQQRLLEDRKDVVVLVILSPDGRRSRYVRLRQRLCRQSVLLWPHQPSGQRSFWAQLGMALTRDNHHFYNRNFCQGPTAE
In short: (§1)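 Steps: seed receptor-specific HEK-Blue cells; add compound, 0.05 nM–50 μM; wait 30 min at room temperature; add final gardiquimod 7.5 μM, R848 15.9 μM or ODN2006 5 nM for TLR7, TLR8 or TLR9; incubate 22 h at 37 °C; detect NF-κB/AP-1-driven SEAP.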

human TLR8 = molecular target: T2, human TLR8 (Homo sapiens, UniProt Q9NR97); assay: TLR8 inhibition reporter assay (HEK-Blue cells, secreted embryonic alkaline phosphatase reporter); conditions: HEK-Blue cells overexpressing human TLR8, stimulated with R848 15.9 μM; read-out: TLR 8 IC50
T2 construct: host or cells: HEK-Blue cells (HEK293-derived reporter line)
T2 sequence (Q9NR97 27-1041): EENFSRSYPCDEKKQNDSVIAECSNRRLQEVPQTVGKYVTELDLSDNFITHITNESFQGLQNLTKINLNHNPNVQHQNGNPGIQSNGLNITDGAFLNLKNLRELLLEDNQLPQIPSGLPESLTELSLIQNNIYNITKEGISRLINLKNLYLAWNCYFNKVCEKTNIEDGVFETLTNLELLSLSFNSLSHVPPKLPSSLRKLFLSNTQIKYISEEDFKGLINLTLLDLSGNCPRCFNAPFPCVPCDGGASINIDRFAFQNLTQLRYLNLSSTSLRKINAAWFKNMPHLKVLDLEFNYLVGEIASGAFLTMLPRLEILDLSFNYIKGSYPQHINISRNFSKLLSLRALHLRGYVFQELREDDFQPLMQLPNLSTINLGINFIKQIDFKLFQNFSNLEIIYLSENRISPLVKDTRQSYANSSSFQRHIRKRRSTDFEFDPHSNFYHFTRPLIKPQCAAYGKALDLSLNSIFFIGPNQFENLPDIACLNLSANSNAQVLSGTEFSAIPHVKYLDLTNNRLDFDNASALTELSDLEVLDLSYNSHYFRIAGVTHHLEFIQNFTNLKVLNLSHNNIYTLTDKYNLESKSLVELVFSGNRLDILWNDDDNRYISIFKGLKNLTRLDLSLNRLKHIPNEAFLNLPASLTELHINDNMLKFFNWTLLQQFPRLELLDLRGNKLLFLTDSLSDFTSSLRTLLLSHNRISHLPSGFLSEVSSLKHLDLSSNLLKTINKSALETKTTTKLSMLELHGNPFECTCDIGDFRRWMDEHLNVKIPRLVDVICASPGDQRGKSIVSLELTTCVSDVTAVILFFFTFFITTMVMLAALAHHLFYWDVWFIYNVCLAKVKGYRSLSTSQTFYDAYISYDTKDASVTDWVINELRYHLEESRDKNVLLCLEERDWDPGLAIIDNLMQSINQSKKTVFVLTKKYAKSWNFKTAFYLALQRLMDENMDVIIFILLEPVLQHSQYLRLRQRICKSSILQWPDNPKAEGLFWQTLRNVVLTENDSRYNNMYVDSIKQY
In short: as §1

human TLR7 = molecular target: T3, human TLR7 (Homo sapiens, UniProt Q9NYK1); assay: TLR7 inhibition reporter assay (HEK-Blue cells, secreted embryonic alkaline phosphatase reporter); conditions: HEK-Blue cells overexpressing human TLR7, stimulated with gardiquimod 7.5 μM; read-out: TLR 7 IC50
T3 construct: host or cells: HEK-Blue cells (HEK293-derived reporter line)
T3 sequence (Q9NYK1 27-1049): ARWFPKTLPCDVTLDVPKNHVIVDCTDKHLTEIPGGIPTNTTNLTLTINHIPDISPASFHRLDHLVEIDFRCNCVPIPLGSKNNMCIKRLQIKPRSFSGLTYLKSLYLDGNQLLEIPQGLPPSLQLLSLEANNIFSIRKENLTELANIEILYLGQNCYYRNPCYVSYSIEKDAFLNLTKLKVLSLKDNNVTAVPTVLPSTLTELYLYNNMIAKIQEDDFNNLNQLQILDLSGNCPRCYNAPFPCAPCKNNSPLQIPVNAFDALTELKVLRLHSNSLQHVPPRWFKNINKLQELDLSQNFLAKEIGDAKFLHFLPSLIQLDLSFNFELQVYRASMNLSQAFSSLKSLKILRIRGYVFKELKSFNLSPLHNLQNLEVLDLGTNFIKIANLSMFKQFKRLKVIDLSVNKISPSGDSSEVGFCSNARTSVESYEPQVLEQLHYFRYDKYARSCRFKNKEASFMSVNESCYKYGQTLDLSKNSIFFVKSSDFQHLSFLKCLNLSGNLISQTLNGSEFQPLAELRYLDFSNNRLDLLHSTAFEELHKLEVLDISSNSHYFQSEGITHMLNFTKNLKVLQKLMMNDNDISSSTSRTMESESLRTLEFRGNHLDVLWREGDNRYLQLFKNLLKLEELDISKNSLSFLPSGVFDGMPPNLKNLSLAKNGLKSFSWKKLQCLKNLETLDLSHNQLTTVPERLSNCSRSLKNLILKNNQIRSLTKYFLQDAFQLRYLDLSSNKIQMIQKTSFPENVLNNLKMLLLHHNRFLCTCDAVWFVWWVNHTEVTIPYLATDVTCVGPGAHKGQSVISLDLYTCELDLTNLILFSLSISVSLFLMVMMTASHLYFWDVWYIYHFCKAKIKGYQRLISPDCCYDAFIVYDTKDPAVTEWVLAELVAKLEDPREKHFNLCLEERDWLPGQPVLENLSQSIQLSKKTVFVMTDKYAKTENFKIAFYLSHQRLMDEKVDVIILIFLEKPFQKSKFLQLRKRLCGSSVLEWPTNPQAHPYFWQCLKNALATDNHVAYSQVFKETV
In short: as §1

[1] = HEK-Blue cells overexpressing human TLR9, stimulated with ODN2006 5 nM, read-out: TLR 9 IC50
[2] = HEK-Blue cells overexpressing human TLR9, stimulated with ODN2006 5 nM, 22 hour incubation, reporter readout

Structure (SMILES) | IC50 (human TLR9) | IC50 (human TLR9; [1]) | IC50 (human TLR8) | IC50 (human TLR7) | IC50 (human TLR9; [2]) | IC50 (human TLR9; HEK-Blue human TLR9 reporter cells)
CC(C)N1C2CCC1CC(N1CCC(c3ccc4nc(-c5ccc(S(C)(=O)=O)cc5)[nH]c4c3F)CC1)C2 (single isomer, unassigned) [Example 94, 7-fluoro-6-(1-(8-isopropyl-8-azabicyclo[3.2.1]octan-3-yl)piperidin-4-yl)-2-(4-(methylsulfonyl)phenyl)-1H-benzo[d]imidazole] | – | – | > 50000 nM | > 50000 nM | 73 nM | –
Cc1cc(C2CCN(C3CCN(CC(C)C)CC3)CC2)cc2c1nc(-c1ccc(S(C)(=O)=O)c(F)c1)n2C [Example 343, 2-(3-fluoro-4-(methylsulfonyl)phenyl)-6-(1′-isobutyl-[1,4′-bipiperidin]-4-yl)-1,4-dimethyl-1H-benzo[d]imidazole] | – | 156 nM | > 25000 nM | 12600 nM | – | 160 nM
COc1ccc(-c2nc3c(C)cc(C4CCN(C5CCNCC5)CC4)cc3[nH]2)cc1OC [Example 13, 6-([1,4′-bipiperidin]-4-yl)-2-(3,4-dimethoxyphenyl)-4-methyl-1H-benzo[d]imidazole tris(2,2,2-trifluoroacetate)] | – | 617 nM | > 50000 nM | > 50000 nM | 620 nM | –
COc1ccc(-c2nc3c(C)cc(C4CCN(C5CC6CCC(C5)N6CC(C)C)CC4)cc3[nH]2)cc1OC (single isomer, unassigned) [Example 19, 2-(3,4-dimethoxyphenyl)-6-(1-(8-isobutyl-8-azabicyclo[3.2.1]octan-3-yl)piperidin-4-yl)-4-methyl-1H-benzo[d]imidazole] | – | – | > 50000 nM | 2500 nM | 28 nM | –
COc1ccc(-c2nc3c(C)cc(C4CCN(C5CCN(C(=O)C(C)C)CC5)CC4)cc3[nH]2)cc1OC [Example 14, 1-(4-(2-(3,4-dimethoxyphenyl)-4-methyl-1H-benzo[d]imidazol-6-yl)-[1,4′-bipiperidin]-1′-yl)-2-methylpropan-1-one] | – | 509 nM | > 50000 nM | > 50000 nM | 510 nM | –
Cc1cc(-c2ccc(CN3CCC(N(C)C4CC4)CC3)cc2)cc2c1nc(-c1ccc(S(C)(=O)=O)cc1)n2C [Example 393, N-cyclopropyl-1-(4-(1,4-dimethyl-2-(4-(methylsulfonyl)phenyl)-1H-benzo[d]imidazol-6-yl)benzyl)-N-methylpiperidin-4-amine] | – | 334 nM | 9500 nM | > 50000 nM | 330 nM | –
Cc1cc(C2CCN(C3CC4CCC(C3)N4CC3CC3)CC2)cc2c1nc(-c1ccc(S(C)(=O)=O)cc1)n2C (single isomer, unassigned) [Example 154, 6-(1-(8-(cyclopropylmethyl)-8-azabicyclo[3.2.1]octan-3-yl)piperidin-4-yl)-1,4-dimethyl-2-(4-(methylsulfonyl)phenyl)-1H-benzo[d]imidazole] | 30 nM | 30 nM | > 25000 nM | 9000 nM | – | –
Cc1cc(C2CCN(C3CCN(CC(C)C)CC3)CC2)cc2[nH]c(-c3ccc4c(c3)OCCO4)nc12 [Example 62, 2-(2,3-dihydrobenzo[b][1,4]dioxin-6-yl)-6-(1′-isobutyl-[1,4′-bipiperidin]-4-yl)-4-methyl-1H-benzo[d]imidazole] | – | 345 nM | > 50000 nM | 740 nM | 350 nM | –

Further lines, results first:

IC50 (human TLR9) | IC50 (human TLR9; [1]) | IC50 (human TLR8) | IC50 (human TLR7) | IC50 (human TLR9; [2]) | IC50 (human TLR9; HEK-Blue human TLR9 reporter cells) | Structure (SMILES)
500 nM | 500 nM | > 50000 nM | > 50000 nM | – | – | CC(C)CN1CCC(N2CCC(c3ccc4nc(-c5ccc(S(C)(=O)=O)cc5)n(C)c4c3F)CC2)CC1 [Example 259, 7-fluoro-6-(1′-isobutyl-[1,4′-bipiperidin]-4-yl)-1-methyl-2-(4-(methylsulfonyl)phenyl)-1H-benzo[d]imidazole]
850 nM | 850 nM | > 50000 nM | > 50000 nM | – | – | CC(C)CN1CCC(N2CCC(c3ccc4c(nc(-c5ccc(S(C)(=O)=O)cc5)n4C)c3F)CC2)CC1 [Example 184, 4-fluoro-5-(1′-isobutyl-[1,4′-bipiperidin]-4-yl)-1-methyl-2-(4-(methylsulfonyl)phenyl)-1H-benzo[d]imidazole]
940 nM | 937 nM | > 50000 nM | > 50000 nM | – | – | COCCN1CCC(N2CCC(c3cc(F)c4c(c3)nc(-c3ccc(S(C)(=O)=O)cc3)n4C)CC2)CC1 [Example 208, 7-fluoro-5-(1′-(2-methoxyethyl)-[1,4′-bipiperidin]-4-yl)-1-methyl-2-(4-(methylsulfonyl)phenyl)-1H-benzo[d]imidazole]
190 nM | 192 nM | > 50000 nM | 25700 nM | – | – | Cn1c(-c2ccc(S(C)(=O)=O)cc2)nc2cc(F)c(C3CCN(C4CCN(CC5CC5)CC4)CC3)cc21 [Example 224, 6-(1′-(cyclopropylmethyl)-[1,4′-bipiperidin]-4-yl)-5-fluoro-1-methyl-2-(4-(methylsulfonyl)phenyl)-1H-benzo[d]imidazole]
